Earlier results in patent US7767688B2, “Combination of pyrimidylaminobenzamide compounds and imatinib for treating gastrointestinal stromal tumours” (Novartis AG, priority 2005, dated 2010).

Biological target: PDGFRA V561D juxtamembrane domain mutation (Homo sapiens, UniProt P16234, V561D)
Conditions: V561D compared with D842V kinase domain mutation

PDGFRA V561D juxtamembrane domain mutation, sequence (P16234 24-1089 V561D): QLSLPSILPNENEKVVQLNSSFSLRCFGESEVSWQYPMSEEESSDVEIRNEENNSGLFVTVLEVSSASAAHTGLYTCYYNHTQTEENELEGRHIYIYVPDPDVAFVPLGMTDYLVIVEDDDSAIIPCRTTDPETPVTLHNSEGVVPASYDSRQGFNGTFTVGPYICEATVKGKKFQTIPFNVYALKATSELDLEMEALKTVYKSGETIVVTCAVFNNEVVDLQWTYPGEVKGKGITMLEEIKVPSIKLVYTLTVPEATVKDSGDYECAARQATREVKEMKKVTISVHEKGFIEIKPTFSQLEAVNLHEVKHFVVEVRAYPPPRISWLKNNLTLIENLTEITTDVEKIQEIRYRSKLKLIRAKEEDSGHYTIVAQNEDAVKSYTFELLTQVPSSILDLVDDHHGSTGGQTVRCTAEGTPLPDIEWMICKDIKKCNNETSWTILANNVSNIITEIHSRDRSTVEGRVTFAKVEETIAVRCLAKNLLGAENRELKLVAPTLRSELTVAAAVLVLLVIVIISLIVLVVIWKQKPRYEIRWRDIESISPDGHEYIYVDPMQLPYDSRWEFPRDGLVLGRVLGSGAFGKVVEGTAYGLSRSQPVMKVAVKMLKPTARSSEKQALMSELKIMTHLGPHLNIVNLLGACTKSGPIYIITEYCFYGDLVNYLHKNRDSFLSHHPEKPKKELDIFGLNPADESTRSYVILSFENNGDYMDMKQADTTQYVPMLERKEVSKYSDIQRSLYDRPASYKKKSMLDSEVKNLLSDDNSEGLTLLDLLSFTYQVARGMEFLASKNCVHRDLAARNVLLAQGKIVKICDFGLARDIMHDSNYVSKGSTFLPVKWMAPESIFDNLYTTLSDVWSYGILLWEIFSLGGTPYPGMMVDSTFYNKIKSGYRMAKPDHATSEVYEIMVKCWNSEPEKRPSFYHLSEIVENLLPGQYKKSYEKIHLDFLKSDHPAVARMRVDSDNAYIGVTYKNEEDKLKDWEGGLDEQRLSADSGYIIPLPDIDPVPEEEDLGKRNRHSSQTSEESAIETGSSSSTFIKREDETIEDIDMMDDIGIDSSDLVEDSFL

In the case of Cc1ccc(NC(=O)c2ccc(CN3CCN(C)CC3)cc2)cc1Nc1nccc(-c2cccnc2)n1 [imatinib], the “Sensitivity to imatinib by location of PDGFRA mutation” value is listed as “more sensitive to imatinib than the D842V kinase domain mutation”.
